US10456404B2, “Targeting cGMP-related phosphodiesterases to reduce cyst formation in cystic kidney disease, and related materials and methods” (Indiana University Research and Technology Corporation, priority 2015, dated 2019)
Like-named read-outs stand apart in the source and are kept apart here.

Assays:
[1] = test system: Telomerase immortalized polycystic kidney cells; experiment: cyst formation by immortalized polycystic kidney cells in 3D forskolin-supplemented Matrigel culture; assay type: cell-based, human
Source text: Telomerase immortalized polycystic kidney cells, as described in Herbert et al. (PLoS One (2013), 8(1): e55191; which is hereby incorporated by reference in its entirety), were used to test the effect of sildenafil citrate on renal cyst growth. Cells from polycystic kidneys removed from patients for medically indicated reasons, removed from any research program, were obtained. The cells were obtained from the pathology laboratory. Cyst tissue was microdissected from the kidneys, and cells were isolated and grown in primary culture. The cells were then immortalized using retroviral techniques well known in the art. Following confirmation of an immortal phenotype, it was established that the polycystic cyst epithelial cells formed cyst structures when grown in 3D forskolin-supplemented Matrigel culture. Immortalized polycystic kidney cells were treated with microgram dosages of sildenafil citrate of 4 μg/ml, 2 μg/ml, and 1 μg/ml. […] Matched controls were sham-treated with vehicle but no drug. […] Dosages tested were consistent with the range of serum drug levels that occur when the drug is prescribed for erectile dysfunction.

PDE6 = conditions: cited from earlier work
cGMP = conditions: in vivo; cited from earlier work
[2] = test system: preclinical cognition models; conditions: in vivo; cited from earlier work
[3] = test system: amyloid precursor protein overexpressing transgenic mice; conditions: cited from earlier work
PDE5 = PDE5 (Homo sapiens, UniProt O76074); conditions: cited from earlier work
other PDEs = conditions: cited from earlier work
human PDE9 = human PDE9 (Homo sapiens, UniProt O76083); conditions: cited from earlier work
human PDE9, sequence (O76083 whole entry): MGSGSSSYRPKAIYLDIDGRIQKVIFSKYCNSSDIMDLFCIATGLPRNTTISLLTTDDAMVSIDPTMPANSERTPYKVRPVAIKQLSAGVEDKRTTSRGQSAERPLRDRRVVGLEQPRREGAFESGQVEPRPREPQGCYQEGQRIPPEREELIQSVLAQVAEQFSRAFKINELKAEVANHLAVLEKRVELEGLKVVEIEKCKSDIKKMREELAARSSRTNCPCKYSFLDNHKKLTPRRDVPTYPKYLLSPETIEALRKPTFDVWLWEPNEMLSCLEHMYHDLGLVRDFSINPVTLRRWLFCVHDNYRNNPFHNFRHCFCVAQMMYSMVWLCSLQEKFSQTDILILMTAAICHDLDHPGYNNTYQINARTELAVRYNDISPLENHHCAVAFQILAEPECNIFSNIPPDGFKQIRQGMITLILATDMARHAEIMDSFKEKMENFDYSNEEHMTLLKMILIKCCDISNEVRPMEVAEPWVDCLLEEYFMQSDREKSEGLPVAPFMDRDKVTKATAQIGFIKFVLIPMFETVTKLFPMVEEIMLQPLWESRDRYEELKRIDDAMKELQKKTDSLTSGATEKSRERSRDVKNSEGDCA

[4] = test system: Telomerase immortalized polycystic kidney cells; experiment: cyst formation by immortalized polycystic kidney cells in 3D forskolin-supplemented Matrigel culture; assay type: cell-based, human; conditions: for average cyst area vs vehicle sham-treated matched control: FIG. 1

CCCc1nn(C)c2c(=O)[nH]c(-c3cc(S(=O)(=O)N4CCN(C)CC4)ccc3OCC)nc12 [sildenafil, 5[2-ethoxy-5-(4-methyl-1-piperazinyl-sulphonyl)phenyl]-1-methyl-3-n-propyl-1,6-dihydro-7H-pyrazolo[4,3-d]pyrimidin-7-one]
large cysts in photographs ([1]; 1:250 dilution of drug in vehicle from a stock, FIG. 3B): No large cysts were observed | large cysts in photographs ([1]; 1:500 dilution of drug in vehicle from a stock, FIG. 4B): No large cysts were observed | large cysts in photographs ([1]; 1:1000 dilution of drug in vehicle from a stock, FIG. 5B): No large cysts were observed

CCCc1nc(C)c2c(=O)nc(-c3cc(S(=O)(=O)N4CCN(CC)CC4)ccc3OCC)[nH]n12 [Vardenafil, 2-[2-ethoxy-5-(4-ethylpiperazin-1-yl)sulfonylphenyl]-5-methyl-7-propyl-1H-imidazo[5,1-f][1,2,4]triazin-4-one]
PDE6 inhibition (PDE6): potent PDE6 inhibitor

C[C@@H]1CN(Cc2ncccn2)C[C@H]1c1nc2c(cnn2C2CCOCC2)c(=O)[nH]1 [PF-04447943, 6-[(3S,4S)-4-methyl-1-(pyrimidin-2-ylmethyl)pyrrolidin-3-yl]-1-(tetrahydro-2H-pyran-4-yl)-1,5-dihydro-4H-pyrazolo[3,4-d]pyrimidin-4-one]
cGMP in brain and cerebrospinal fluid (cGMP): elevates | memory in preclinical cognition models [2]: improves | synaptic plasticity [2]: enhances | decreases in dendritic spine density [3]: prevents

CCCc1nc(C)c2c(=O)[nH]c(-c3cc(S(=O)(=O)N4CCNCC4)ccc3OCC)nn12 [M1]
PDE5 inhibition potency relative to the parent drug (PDE5; parent drug vardenafil): reduced potency

C[C@H](Cc1nc2c(cnn2-c2ccccc2Cl)c(=O)[nH]1)C(F)(F)F [BAY 73-6691, 1-(2-chlorophenyl)-6-[(2R)-3,3,3-trifluoro-2-methylpropyl]-1,5-dihydro-4H-pyrazolo[3,4-d]pyrimidine-4-one]
activity against other PDEs (other PDEs): only moderate activity | inhibition of human PDE9 activity in vitro (human PDE9): selectively inhibit

CCCOc1ccccc1-c1nc2[nH][nH]nc-2c(=O)n1 [Zaprinast, 5-(2-propoxyphenyl)-2,3-dihydrotriazolo[4,5-d]pyrimidin-7-one]
PDE6 versus PDE5 inhibition potency (PDE6): inhibit PDE6 more potently than PDE5

CCCc1nn(C)c2c(=O)[nH]c(-c3cc(S(=O)(=O)N4CCN(C)CC4)ccc3OCC)nc12.O=C(O)CC(O)(CC(=O)O)C(=O)O [sildenafil citrate, 1-[[3-(6,7-dihydro-1-methyl-7-oxo-3-propyl-1H-pyrazolo[4,3-d]pyrimidin-5-yl)-4-ethoxyphenyl]sulfonyl]-4-methylpiperazine citrate]
average cyst area vs vehicle sham-treated matched control ([4]; 250 ng/ml, p<1.05 E−8): significantly reduced | average cyst area vs vehicle sham-treated matched control ([4]; 500 ng/ml, p<0.01): significantly reduced | dose response of cyst area reduction ([4]; 250, 500, 1000 ng/ml): No dose response | large cyst formation (cyst structures of greater than 150μ^2), frequency distribution ([4]; 250, 500, 1000 ng/ml, FIG. 2): completely inhibited | Average cyst size compared to control ([1]; 1 μg/ml, p<0.01): significantly decreased | average cyst area vs vehicle sham-treated matched control ([1]; 1000 ng/ml, p<0.01, FIG. 1): significantly reduced | Average cyst size compared to control ([1]; 2 μg/ml, p<0.01): significantly decreased | Average cyst size compared to control ([1]; 4 μg/ml, p<1 E−6): significantly decreased

CCCc1nn(C)c2c(=O)[nH]c(-c3cc(S(=O)(=O)N4CCNCC4)ccc3OCC)nc12 [UK-103,320]
PDE5 inhibition potency relative to the parent drug (PDE5; parent drug sildenafil): approximately 50%
